# Results from ChEMBL document CHEMBL4665868, “Study on the interaction between 4-(1H-indol-3-yl)-2-(p-tolyl)quinazoline-3-oxide and human serum albumin” (Bioorg Med Chem, 2020).
# Assays:
# Format in all cases: ADME
# Albumin [1] = target: T1, Albumin (Homo sapiens, UniProt P02768); test: Binding affinity to HSA assessed as binding constant at 303 K by fluorescence spectrophotometer assay; conditions: isolated protein
# Albumin [2] = target: T1, Albumin; test: Binding affinity to HSA assessed as decrease in fluorescence intensity at 100 uM at by fluorescence spectrophotometer assay; set-up: scale not given: the % may be the effect or the level left; conditions: isolated protein
# Albumin [3] = target: T1, Albumin; test: Binding affinity to HSA assessed as Stern-Volmer quenching constant at 300 K by fluorescence spectrophotometer assay; conditions: isolated protein
# Albumin [4] = target: T1, Albumin; test: Binding affinity to HSA assessed as causing the change of the microenvironment of tyrosine residue by measuring red shift at 0 to 100 uM after 5 mins by fluorescence based Synchronous fluorescence spectroscopy; conditions: isolated protein, dose 0-100 µM
# Albumin [5] = target: T1, Albumin; test: Binding affinity to HSA […] site assessed as quenching in presence of warfarin at 0 to 100 uM after 5 mins by fluorescence based site competition assay; conditions: isolated protein, dose 0-100 µM
# Albumin [6] = target: T1, Albumin; test: Binding affinity to HSA assessed as change in enthalpy at 298 K by Van't Hoff plot analysis; conditions: isolated protein
# Albumin [7] = target: T1, Albumin; test: Binding affinity to HSA assessed as Stern-Volmer quenching constant at 298 K by fluorescence spectrophotometer assay; conditions: isolated protein
# Albumin [8] = target: T1, Albumin; test: Binding affinity to HSA assessed as Stern-Volmer quenching constant at 303 K by fluorescence spectrophotometer assay; conditions: isolated protein
# Albumin [9] = target: T1, Albumin; test: Binding affinity to HSA […] site assessed as quenching in presence of digitoxin at 0 to 100 uM after 5 mins by fluorescence based site competition assay; conditions: isolated protein
# Albumin [10] = target: T1, Albumin; test: Binding affinity to HSA assessed as binding constant at 298 K by fluorescence spectrophotometer assay; conditions: isolated protein
# Albumin [11] = target: T1, Albumin; test: Binding affinity to HSA assessed as quenching constant at 303 K by fluorescence spectrophotometer assay; conditions: isolated protein
# Albumin [12] = target: T1, Albumin; test: Binding affinity to HSA assessed as binding constant at 300 K by fluorescence spectrophotometer assay; conditions: isolated protein
# Albumin [13] = target: T1, Albumin; test: Binding affinity to HSA […] site assessed as quenching in presence of ibuprofen at 0 to 100 uM after 5 mins by fluorescence based site competition assay; conditions: isolated protein
# Albumin [14] = target: T1, Albumin; test: Binding affinity to HSA assessed as quenching constant at 298 K by fluorescence spectrophotometer assay; conditions: isolated protein
# Albumin [15] = target: T1, Albumin; test: Binding affinity to HSA assessed as change in entropy at 298 K by Van't Hoff plot analysis; conditions: isolated protein
# Albumin [16] = target: T1, Albumin; test: Binding affinity to HSA assessed as quenching constant at 300 K by fluorescence spectrophotometer assay; conditions: isolated protein
# T1 sequence (P02768 whole entry): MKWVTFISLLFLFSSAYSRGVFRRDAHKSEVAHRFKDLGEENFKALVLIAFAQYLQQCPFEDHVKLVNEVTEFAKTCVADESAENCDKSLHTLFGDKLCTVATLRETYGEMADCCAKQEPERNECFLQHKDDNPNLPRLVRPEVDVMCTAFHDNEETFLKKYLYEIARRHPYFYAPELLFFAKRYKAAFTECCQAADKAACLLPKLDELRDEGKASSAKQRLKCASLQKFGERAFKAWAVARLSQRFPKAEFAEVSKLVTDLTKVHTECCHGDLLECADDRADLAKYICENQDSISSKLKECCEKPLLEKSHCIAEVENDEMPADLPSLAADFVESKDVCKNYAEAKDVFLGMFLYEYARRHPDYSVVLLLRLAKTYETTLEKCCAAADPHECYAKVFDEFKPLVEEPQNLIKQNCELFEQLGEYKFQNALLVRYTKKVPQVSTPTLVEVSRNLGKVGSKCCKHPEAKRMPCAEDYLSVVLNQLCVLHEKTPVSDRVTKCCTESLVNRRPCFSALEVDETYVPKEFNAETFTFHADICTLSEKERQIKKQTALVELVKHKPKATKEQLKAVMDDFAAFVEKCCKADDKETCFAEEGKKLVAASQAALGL
structure (smiles),measurement,setting,value
Cc1ccc(-c2nc3ccccc3c(-c3c[nH]c4ccccc34)[n+]2[O-])cc1,K,Albumin [1],1.03 10^4L/mol
same,Activity,Albumin [2],49.2%
same,KSV,Albumin [3],1.39 10^4L/mol
same,Activity,Albumin [4],9 nm
same,Activity,Albumin [5],Not Active
same,deltaH,Albumin [6],33.227 kcal/mol
same,KSV,Albumin [7],1.4 10^4L/mol
same,KSV,Albumin [8],1.33 10^4L/mol
same,Activity,Albumin [9],Active
same,K,Albumin [10],2.47 10^4L/mol
same,Kq,Albumin [11],1.33 10^12L/mol.s
same,K,Albumin [12],1.7 10^4L/mol
same,Activity,Albumin [13],Active
same,Kq,Albumin [14],1.4 10^12L/mol.s
same,deltaS,Albumin [15],436 J/mol·K
same,Kq,Albumin [16],1.39 10^12L/mol.s
